{"source": "patent US10392398B2", "about": "“Inhibitors of Late SV40 Factor (LSF) as cancer chemotherapeutics” (TRUSTEES OF BOSTON UNIVERSITY, priority 2010, dated 2019)", "key": {"QGY-7703-derived tumors": {"system": "QGY-7703-derived tumors", "assay": "Subcutaneous xenograft model of HCC in mice", "type": "in vivo", "details": "for growth of hepatocellular carcinoma in vivo: intraperitoneally once every 3 days, about 1.0-2.0 mg/kg", "description": "The inventors, in collaboration with other scientists performed in vivo experiments in a subcutaneous xenograft model, where mice with small QGY-7703-derived tumors were given multiple, spaced intraperitoneal injections of FQI1 (Formula IV) over a 2 week period, followed by an additional 2-weeks prior to analysis. […] However, expression of osteopontin, whose gene is activated directly by LSF^8, was abolished by FQI1 treatment, as was expression of Ki-67, indicative of the replicative capacity of the tumors (data not shown). […] In contrast to the dramatic effects on tumor growth, no general toxicity was evident in the inhibitor-treated animals, as assayed by lack of changes in body weight, feeding, grooming, posture, and general behavior, as well as hematoxylin and eosin staining of multiple tissues (data not shown), and levels of liver enzymes and protein in the blood (data not shown)."}, "QGY-7703 cells": {"system": "QGY-7703 cells", "assay": "Cell viability GI50 (MTS), QGY-7703", "type": "cell-based", "details": "Homo sapiens", "procedure": "QGY-7703 and A549 cells were cultured at 37° C. in 5% CO2 in DMEM (Dulbecco's modification of Eagle's Medium; Corning) supplemented with 10% Fetal Bovine Serum (FBS; Invitrogen). NIH-3T3 cells were cultured at 37° C. in 5% CO2 in DMEM supplemented with 10% Fetal Calf Serum (FCS; Atlanta Biologicals). For cell viability assays, 1,500 cells were seeded in 96-well plates and treated with FQI-34 or vehicle (DMSO) at appropriate concentrations (DMSO at 1%) after 20 hours. After 72-hour incubation with compound or vehicle, cell growth was assessed via the Promega CellTiter 96® AQueous One Solution Cell Proliferation Assay, a colorimetric method to determine the number of viable cells. 20 μL of the CellTiter 96® AQueous One Solution Reagent was added directly into cultured wells and incubated for one hour, after which the absorbance at 490 nm was read with a 96-well plate reader (Opys MR Microplate Reader). The CellTiter 96® AQueous One Solution contains an MTS tetrazolium compound which is bioreduced by cells into a colored formazan product that is soluble in tissue culture medium. The quantity of formazan product as measured by absorbance is directly proportional to the number of living cells in culture. GI50 values were determined from plots of the percentage of compound-treated cell growth to vehicle cell growth vs. compound concentration (GraphPad Prism; non-linear regression 4-parameter curve fit with variable slope)."}, "[1]": {"assay": "Pharmacokinetic analysis in rat plasma", "type": "in vivo", "details": "for Vd: read-out: VDss; for bioavailability: read-out: % Bioavailability F", "procedure": "The purpose of the study was to measure the concentration of FQI-34 in rat plasma samples. The study was performed under non-GLP conditions. All work was performed with appropriate local health regulation and ethical approval. Plasma samples were taken at 0.08, 0.25, 0.5, 1, 2, 4, 8, and 24 hours. Plasma samples were crashed with three volumes of methanol containing an analytical internal standard (propranolol/bucetin/diclofenac). Samples were then centrifuged to remove precipitated protein, and the supernatant was analyzed by LC-MS/MS using a Waters Xevo TQ mass spectrometer coupled with an Acuity HPLC and a CTC PAL chilled autosampler, all controlled by MassLynx software (Waters). The analyte signal was optimized prior to analysis. After separation on a C18 reverse phase HPLC column (Waters Acquity HSS T3 2.1×50 mm 1.8 μM) using an acetonitrile-water gradient system, peaks were analyzed by mass spectrometry (MS) using ESI ionization in MRM mode. All plasma samples were compared to a calibration curve prepared in rat blank plasma.\nMale Sprague-Dawley rats were obtained from a commercial source and housed in an AAALAC-approved facility until dosing. For IV dosing, FQI-34 was dissolved in 10% ethanol/16% PEG-400/74% saline at 0.4 mg/mL and in a 1% methylcellulose/0.5% Tween-80 suspension at 10 mg/mL for PO dosing. Three rats per group were dosed by a single IV bolus (10 mL/kg) or PO (10 mL/kg).\nPlasma PK-parameters were independently verified and interpreted using PK-solver: An Excel add-In (Zhang, Y. et al. PKSolver: An add-in program for pharmacokinetic and pharmacodynamic data analysis in Microsoft Excel. Comput. Methods Programs Biomed. (2010) 99, 306-314), via a non-compartmental analysis using the linear-trapezoidal method (Fan, J. Pharmacokinetics. Biochemical Pharmacology (2014) 87, 93-120)."}, "[2]": {"details": "male, Sprague-Dawley, rat, plasma, iv, 4 mg/kg, rat plasma, IV 4 mg/kg, AVERAGE"}, "[3]": {"details": "male, Sprague-Dawley, rat, plasma, iv, 4 mg/kg, rat plasma, IV 4 mg/kg, individual rats A, B, C"}, "[4]": {"details": "rat plasma, IV 4 mg/kg, individual rats A, B, C, 4 mg/kg"}, "[5]": {"details": "rat plasma, PO 100 mg/kg, individual rats A, B, C, 100 mg/kg"}, "[6]": {"details": "rat, IV 4 mg/kg, individual rats A, B, C, 4 mg/kg"}, "[7]": {"details": "rats, single IV dose, 50 mg/mL dose level as printed"}}, "note": "Several values for one entry are separate records, joined by “and”; a condition that tells them apart may be missing. Equal values may be shown once. Read-outs that look alike come from different tables or passages of the source."}
{"compound": "CCOc1ccccc1C1CC(=O)Nc2cc3c(cc21)OCO3", "note": "(racemic) [FQI1, 8-(2-ethoxyphenyl)-7,8-dihydro-[1,3]dioxolo[4,5-g]quinolin-6(5H)-one]", "values": [{"measurement": "suppression of growth of HCC tumor size", "setting": "QGY-7703-derived tumors; about 1.0-2.0 mg/kg once every 3 days, versus untreated mice, data not shown", "value": "65-80%"}, {"measurement": "general toxicity in inhibitor-treated animals", "setting": "QGY-7703-derived tumors; body weight, feeding, grooming, posture, behavior, H&E of tissues", "value": "not evident"}, {"measurement": "expression of Ki-67 in endpoint tumors", "setting": "QGY-7703-derived tumors; immunofluorescence", "value": "abolished"}, {"measurement": "expression of osteopontin in endpoint tumors", "setting": "QGY-7703-derived tumors; immunofluorescence", "value": "abolished"}, {"measurement": "tumor growth in mouse xenograft", "setting": "QGY-7703-derived tumors; in words", "value": "remarkable decrease in tumor growth"}, {"measurement": "growth of hepatocellular carcinoma in vivo", "setting": "QGY-7703-derived tumors; in words, listed as formula (IV)", "value": "prevented or delayed the growth of hepatocellular carcinoma"}, {"measurement": "growth of hepatocellular carcinoma in vivo", "setting": "QGY-7703-derived tumors; in words, listed as formula IV", "value": "effective at abrogating the growth of hepatocellular carcinoma in vivo"}, {"measurement": "reduction of HCC tumor volume", "setting": "QGY-7703-derived tumors; mouse model, data not shown", "value": "about 80%"}, {"measurement": "decrease in endpoint tumor volumes", "setting": "QGY-7703-derived tumors; multiple intraperitoneal injections over 2 weeks, analysis 2 weeks later, data not shown", "value": "~9", "unit": "fold"}]}
{"compound": "CCOc1cc(N(C)C)ccc1C1CC(=O)Nc2cc3c(cc21)OCO3", "note": "(stereo not drawn) [FQI-34, 8-(4-(dimethylamino)-2-ethoxyphenyl)-7,8-dihydro-[1,3]dioxolo[4,5-g]quinolin-6(5H)-one]", "values": [{"measurement": "GI50", "setting": "QGY-7703 cells; 72-hour incubation, MTS, read-out: GI50 in QGY-7703 cells", "value": 260, "unit": "nM"}, {"measurement": "GI50", "setting": "QGY-7703 cells; Table 5, read-out: QGY-7703 GI50", "value": 260, "unit": "nM"}, {"measurement": "GI50", "setting": "QGY-7703 cells; Table 8, read-out: QGY-7703 GI50", "value": 260, "unit": "nM"}, {"measurement": "clearance", "setting": "[1]; male, Sprague-Dawley, rat, plasma, iv, 4 mg/kg, IV 4 mg/kg, AVERAGE", "value": 73, "unit": "mL/min/kg"}, {"measurement": "clearance", "setting": "[1]; male, Sprague-Dawley, rat, plasma, iv, 4 mg/kg, IV 4 mg/kg, individual rats A, B, C", "value": 65, "unit": "mL/min/kg"}, {"measurement": "AUC(0-inf)", "setting": "[1]; [2]", "value": 935, "unit": "ng·h/mL"}, {"measurement": "half-life", "setting": "[1]; [2]", "value": 48.6, "unit": "min"}, {"measurement": "C0", "setting": "[1]; male, Sprague-Dawley, rat, plasma, iv, 4 mg/kg, rat plasma, IV 4 mg/kg, AVERAGE, read-out: C0", "value": 423, "unit": "ng/mL"}, {"measurement": "Cmax", "setting": "[1]; male, Sprague-Dawley, rat, plasma, iv, 4 mg/kg, rat plasma, IV 4 mg/kg, AVERAGE, read-out: Cmax", "value": 552, "unit": "ng/mL"}, {"measurement": "Tmax", "setting": "[1]; male, Sprague-Dawley, rat, plasma, iv, 4 mg/kg, rat plasma, IV 4 mg/kg, AVERAGE, read-out: Tmax", "value": 25.2, "unit": "min"}, {"measurement": "AUC(0-inf)", "setting": "[1]; [3]", "value": 1020, "unit": "ng·h/mL"}, {"measurement": "half-life", "setting": "[1]; [3]", "value": 43.8, "unit": "min"}, {"measurement": "C0", "setting": "[1]; male, Sprague-Dawley, rat, plasma, iv, 4 mg/kg, rat plasma, IV 4 mg/kg, individual rats A, B, C, read-out: C0", "value": 434, "unit": "ng/mL"}, {"measurement": "Cmax", "setting": "[1]; male, Sprague-Dawley, rat, plasma, iv, 4 mg/kg, rat plasma, IV 4 mg/kg, individual rats A, B, C, read-out: Cmax", "value": 545, "unit": "ng/mL"}, {"measurement": "Tmax", "setting": "[1]; male, Sprague-Dawley, rat, plasma, iv, 4 mg/kg, rat plasma, IV 4 mg/kg, individual rats A, B, C, read-out: Tmax", "value": 30, "unit": "min"}, {"measurement": "Vd", "setting": "[1]; male, Sprague-Dawley, rat, plasma, iv, 4 mg/kg, rat, IV 4 mg/kg, AVERAGE", "value": 5.1, "unit": "L/kg"}, {"measurement": "Vd", "setting": "[1]; male, Sprague-Dawley, rat, plasma, iv, 4 mg/kg, rat, IV 4 mg/kg, individual rats A, B, C", "value": 4.6, "unit": "L/kg"}, {"measurement": "AUC(0-inf)", "setting": "[1]; male, Sprague-Dawley, rat, plasma, po, 100 mg/kg, rat plasma, PO 100 mg/kg, AVERAGE", "value": 4960, "unit": "ng·h/mL"}, {"measurement": "Cmax", "setting": "[1]; male, Sprague-Dawley, rat, plasma, po, 100 mg/kg, rat plasma, PO 100 mg/kg, AVERAGE, read-out: Cmax", "value": 526, "unit": "ng/mL"}, {"measurement": "Tmax", "setting": "[1]; male, Sprague-Dawley, rat, plasma, po, 100 mg/kg, rat plasma, PO 100 mg/kg, AVERAGE, read-out: Tmax", "value": 162, "unit": "min"}, {"measurement": "AUC(0-inf)", "setting": "[1]; male, Sprague-Dawley, rat, plasma, po, 100 mg/kg, rat plasma, PO 100 mg/kg, individual rats A, B, C", "value": 4900, "unit": "ng·h/mL"}, {"measurement": "Cmax", "setting": "[1]; male, Sprague-Dawley, rat, plasma, po, 100 mg/kg, rat plasma, PO 100 mg/kg, individual rats A, B, C, read-out: Cmax", "value": 500, "unit": "ng/mL"}, {"measurement": "Tmax", "setting": "[1]; male, Sprague-Dawley, rat, plasma, po, 100 mg/kg, rat plasma, PO 100 mg/kg, individual rats A, B, C, read-out: Tmax", "value": 240, "unit": "min"}, {"measurement": "bioavailability", "setting": "[1]; male, Sprague-Dawley, rat, plasma, po, 100 mg/kg, rat, PO 100 mg/kg, AVERAGE", "value": 21, "unit": "%"}, {"measurement": "bioavailability", "setting": "[1]; male, Sprague-Dawley, rat, plasma, po, 100 mg/kg, rat, PO 100 mg/kg, individual rats A, B, C", "value": 21, "unit": "%"}, {"measurement": "AUC(0-∞)", "setting": "[1]; [4]", "value": "759 ng·h/mL and 1028 ng·h/mL"}, {"measurement": "C0", "setting": "[1]; [4]", "value": "446 ng/mL and 390 ng/mL"}, {"measurement": "Cmax", "setting": "[1]; [4]", "value": "548 ng/mL and 564 ng/mL"}, {"measurement": "T1/2", "setting": "[1]; [4]", "value": "43.2 min and 59.4 min"}, {"measurement": "Tmax", "setting": "[1]; [4]", "value": 15, "unit": "min"}, {"measurement": "AUC(0-∞)", "setting": "[1]; [5]", "value": "4026 ng·h/mL and 5936 ng·h/mL"}, {"measurement": "Cmax", "setting": "[1]; [5]", "value": "501 ng/mL and 577 ng/mL"}, {"measurement": "Tmax", "setting": "[1]; [5]", "value": 120, "unit": "min"}, {"measurement": "CL", "setting": "[1]; [6]", "value": 88, "unit": "mL/min/kg"}, {"measurement": "VDss", "setting": "[1]; [6]", "value": "5.4 L/kg and 5.3 L/kg"}, {"measurement": "% Bioavailability F", "setting": "[1]; rat, PO 100 mg/kg, individual rats A, B, C, 100 mg/kg", "value": "17% and 25%"}, {"measurement": "gross necropsy", "setting": "Rat tolerability; end of study, 14 days after single IV dose of 5, 15 or 50 mg/kg", "value": "no abnormal findings"}, {"measurement": "condition of all rats for duration of study", "setting": "Rat tolerability; excluding the male rat B, 5, 15 and 50 mg/kg IV, 14 days", "value": "within normal limits"}, {"measurement": "observations in all other rats at this dose level", "setting": "Rat tolerability; rats, single IV dose, 15 mg/mL dose as printed, 14 days", "value": "remained normal throughout the study"}, {"measurement": "mortality", "setting": "Rat tolerability; rats, single IV dose, 15 mg/mL dose as printed, believed to be due to stress and not compound related", "value": "Male Rat B died"}, {"measurement": "observations upon dosing", "setting": "Rat tolerability; [7]", "value": "pronation, increased respiratory rate, and decreased activity"}, {"measurement": "time until rats returned to normal", "setting": "Rat tolerability; [7]", "value": "≤ 30", "unit": "min"}]}
